This is an account of results in patent US7045495B2 (Sloan-Kettering Institute for Cancer Research, priority 1996, dated 2006).

Values joined by “and” are separate entries in the source; they are usually repeats but may differ in a detail not shown here. Identical values can stand only once. Counter-ions that a name gives are not always drawn. Like-named read-outs stand apart in the source and are kept apart here.

One data set has as its system NU-GC-4. Briefly: clonogenic assay, resistance relative to MKN-74. The class given is cell-based, human. The following applies: 10 μg/ml CDDP, 5 μg/ml MMC. From the text:
(§1) The basis of drug resistance in these disease has not been well defined. […] For gastric cancer applicants have been successful in establishing five long-term cell lines, SK-GT-1, SK-GT-2, SK-GT-4, SK-GT-5, and SK-GT-6 for Sloan Kettering Gastric Tumor (12,13) none of which express P-glycoprotein (14). Yet, all these tumors are resistant to chemotherapy and to the induction of apoptosis. Applicants have reported that the relative sensitivity of these gastric cancer cells to chemotherapy is influenced by their p53 status (14).

Data set [1] has as its system MKN-74. In words: clonogenic assay, resistance relative to MKN-74. The class given is cell-based, human. Particulars: MKN-74 (reference); 10 μg/ml CDDP, 5 μg/ml MMC, 50 FM 5-FU.
Description: as §1

For the next data set, the system named is SK-GT-5. Briefly: clonogenic assay, resistance relative to MKN-74. The format is cell-based, human. The following applies: 10 μg/ml CDDP, 5 μg/ml MMC, 50 FM 5-FU.
Description: as §1

The next data set has as its system SK-GT-2. Briefly: clonogenic assay, resistance relative to MKN-74. Particulars: 10 μg/ml CDDP, 5 μg/ml MMC, 50 FM 5-FU. The class given is cell-based, human.
Description: as §1

The next data set concerns SK-GT-1. Briefly: clonogenic assay, resistance relative to MKN-74. The class given is cell-based, human. Particulars: clonogenic survival ratio, 10 μg/ml CDDP, 5 μg/ml MMC, 50 FM 5-FU.
Description: as §1

In data set [2] the test system is MKN-74. Briefly: cell viability, trypan blue dye exclusion. The format is cell-based, human. The following applies: 24 hours, single drug or concomitant; bryostatin 1 μM, Mitomycin-C 1 μg/ml, Taxol 50 μM, Cisplatin 50 μM. An excerpt:
Recently our laboratory has studied the effects of combining bryostatin with chemotherapy both in vitro and in vivo against solid tumors. For our in vitro studies, we have been using the human gastric cancer cell line MKN-74. Cytotoxicity has been examined both by cell viability assays using trypan blue dye exclusion assays and by the induction of apoptosis using quantitative fluorescent microscopy.

The test system of another data set is 16C mammary carcinoma. Particulars: cisplatin 10 mg/kg i.v.; safingol 20 mg/kg i.p.; cited from earlier work.
The conditions of data set [3]: Fischer 344 rats, cited from earlier work.
Data set [4] has as its system PC-3 prostate cancer cells. The following applies: cited from earlier work.
Data set [5] concerns the target cyclic-adenosine monophosphate-dependent protein kinase A. Particulars: flavopiridol; read-out: IC50, cyclic AMP-dependent protein kinase; cited from earlier work.
The conditions of data set [6]: dog, in vivo, iv, 2.6 mg/kg; cited from earlier work.
Data set [7] concerns PKC obtained from MKN-74 gastric cancer cells. In words: PKC purified from MKN-74 cells, phosphorylation of myelin basic protein. Particulars: for PKC activity: no drug 25,000. The class given is biochemical, human. An excerpt:
For these experiments MKN-74 cells were homogenized and PKC was purified on a DEAE cellulose column as described (37). […] A control sample was also run with the PKC pseudosubstrate, which functions as an established PKC inhibitor. The results, as shown in the table below, are expressed as the absolute counts of [^32P]ATP incorporated into myelin basic protein/minute of assay time: […]

Data set [8] concerns MKN-74 cells. Briefly: apoptosis by QFM, Hoechst-33258 staining. The class given is cell-based, human. As for the experimental part: Apoptosis was measured by two different methods: (i) Quantitative fluorescent microscopy (QFM) of nuclear changes induced by apoptosis, as determined by bisbenzimide trihydrochloride (Hoescht-33258) staining of nuclear chromatin (15), and (ii) a terminal deoxynucleotidyl transferase (TdT) assay that labels the 3′-OH ends of DNA fragments produced in apoptotic cells (16). […] MMC was diluted in water. A stock safingol solution was constituted in DMSO and was subsequently diluted at least 1:100 in media for all experiments. […] For QFM determinations, the cells were fixed in 3% paraformaldehyde and incubated at room temperature for 10 minutes. The fixative was removed and the cells were washed with 1×PBS, resuspended in 20 μl 1×PBS containing only 8 μg/ml of bisbenzimide trihydrochloride (Hoechst #33258), and incubated at room temperature for 15 minutes. Aliquots of the cells (10 μl) were placed on glass slides coated with 3-amino-propyl-triethoxysilane, and duplicate samples of 500 cells each were counted and scored for the incidence of apoptotic chromatin condensation using an Olympus BH-2 fluorescence microscope equipped with a BH2-DM2U2UV Dich. Mirror Cube filter (Olympus, Lake Success, N.Y.). For the TdT assays, the ApopTag Kit (Oncor, Gaithersburg, Md.) was used. This method employs a fluoresceinated antidigoxigenin antibody directed against nucleotides of digoxigenin-11-dUTP (d-dUTP) which are catalytically added to the 3-ends fragmented DNA by TdT. Briefly, 1–2×10^6 cells were washed and fixed with 1% paraformaldehyde. The fixed cells were incubated in a reaction mixture containing TdT and d-dUTP for 30 minutes at 37° C. Stop/wash buffer was added, and the cells were resuspended in 100 μl of fluorescinated anti-digoxigenin antibody for 30 minutes at room temperature. The cells were then washed with 0.1% Triton X-100 and counterstained with propidium iodide (PI) solution. Green (d-dUTP labeled DNA strand breaks) and red (PI staining for total DNA content) fluorescence of individual cells were measured on a FACScan flow cytometer (Becton Dickinson, San Jose, Calif.). The resulting bivariate plots enabled the detection of apoptotic events within the cell cycle. The R1 cursor was set using the control specimen to define normal levels of green fluorescence (i.e., basal levels of apoptosis). Cells with fluorescence above the R, cursor were considered apoptotic. The data from 10,000 cells were collected and analyzed using CellFit and LYSYS software (Becton Dickinson).
Apoptosis was again measured by QFM staining.
(§2) Induction of apoptosis was estimated by counting the frequency of condensed nuclear chromatin with Hoechst-33258 stain in duplicate samples of 400 cells.
For these studies apoptosis was measured by quantitative fluorescent microscopy (QFM) determination with bisbenzimide trihydrochloride stain (Hoescht-33258) for condensed nuclear chromatin characteristic of apoptotic cells.
For QFM determinations 500 cells were counted and scored for the incidence of apoptotic chromatin changes under an Olympus BH-2 fluorescence microscope in duplicate samples, ±SD, using a BH2-DM2U2UV Dich. Mirror Cube filter.
To study this further applicants elected to examine five bis-indolylmaleimides with various potencies against PKC. […] The induction of apoptosis was estimated by counting the frequency of condensed nuclear chromatin with Hoechst-33258 stain in duplicate samples of 400 cells.

The test system of another data set is bcl-2 in OV432 cells. Briefly: bcl-2 expression by Western immunoblotting. The class given is cell-based. Particulars: FLAVO concentrations as low as 50 nM. An excerpt:
(§3) Over-expression of bcl-2 has been associated with resistance to chemotherapy and inhibition of apoptosis.

For data set [9] the following is noted: second phase I trial; cited from earlier work.
In another data set the test system is OV432. In words: trypan blue exclusion and alamar blue assays. The format is cell-based. The following applies: FLAVO 24 hours.
Description: as §3

The next data set deals with 183CLL. Briefly: trypan blue exclusion and alamar blue assays. The class given is cell-based. The following applies: FLAVO 24 hours.
Description: as §3

Data set [10] concerns MKN-74 cells. In words: trypan blue exclusion and alamar blue assays. The class given is cell-based. The following applies: Homo sapiens, FLAVO 24 hours.
Description: as §3

For data set [11] the following is noted: cited from earlier work.
Another data set concerns PKC. Particulars: flavopiridol; read-out: IC50, PKC enzyme activity; cited from earlier work.
The test system of another data set is bcl-2 in MKN-74 cells. In words: bcl-2 expression by Western immunoblotting. The following applies: 300 nM of FLAVO; co-treatment with MMC 50 μM. The format is cell-based, human.
Description: as §3

Data set [12] concerns A549, HCT 8, T986, MCF-7 and HL-60 human cancer cell lines. The following applies: cited from earlier work.
The test system of data set [13] is MDA-MB-468 breast cancer cells. Briefly: apoptosis by QFM, Hoechst-33258 staining. The format is cell-based, human. Particulars: MDA-MB-468; flavopiridol, MMC. As to the method: PRELIMINARY STUDIES. […] Apoptosis was measured by quantitative fluorescent microscopy (QFM) of nuclear changes induced by apoptosis, as determined by bisbenzimide trihydrochloride (Hoescht-33258) staining of condensed nuclear chromatin (24). For the QFM duplicate samples of 500 cells each were counted and scored for the incidence of apoptotic chromatin condensation using an Olympus BH-2 fluorescence microscope.
Applicants also tested the PKC inhibitor UCN-01 (27) which is currently in phase I clinical trial at the NCI. In contrast to safingol, which inhibits PKC by binding to its regulatory domain, UCN-01 inhibits PKC at its catalytic domain. Therefore, assessment of the effect of UCN-01 on inducing apoptosis in combination with MMC on MDA-MB-468 was also performed. The QFM method to quantitate apoptosis was again used. The conditions tested were identical to those described above for safingol except UCN-01 (1 μM) was substituted for safingol in all the conditions.
as §2

Another data set deals with MDA-MB-468 cells. The following applies: cited from earlier work.
For the next data set, the system named is SUDHL-4 lymphoma cells. The following applies: cited from earlier work.

In the case of `O=c1[nH]cc(F)c(=O)[nH]1` [5-FU, 5-Fluorouracil], the “Fold-Increase in Resistance Relative to MKN-74 (p53wt)” value in the data set on NU-GC-4 was 0.6X; in the data set on MKN-74 [1] it was 1X; in the data set with SK-GT-5 it was 6X; with SK-GT-2, 12X; in the data set with SK-GT-1 it was 11X.

`N.N.[Cl][Pt][Cl]` [cisplatin, Cisplatin]: the “Fold-Increase in Resistance Relative to MKN-74 (p53wt)” value in the data set on NU-GC-4 is reported as 2X; in the data set with MKN-74 [1], 1X; in the data set with SK-GT-5 it was 12X; with SK-GT-2 it was 11X; in the data set with SK-GT-1, 21X. Further, the “% of Cells Alive” value in the data set on MKN-74 [2] is reported as 60%. In the data set on 16C mammary carcinoma, the “time for tumor to reach 5 times its starting size” value is listed as 10 days.

As for `CN1CC[C@H](c2c(O)cc(O)c3c(=O)cc(-c4ccccc4Cl)oc23)[C@H](O)C1` (relative stereo) [flavopiridol, 2-(2-chlorophenyl)-5,7-dihydroxy-8-(cis-3-hydroxy-1-methyl-4-piperidinyl)-4H-1-benzopyran-4-one, hydrochloride], the “Maximal plasma drug concentration (Cmax)” value in data set [3] was 9.5 µg/mL. Moreover, the Plasma clearance in data set [3] is 3.48 L/h/kg. For the same compound, the “elimination half-life (T1/2)” value in data set [3] is 1.87 h. Moreover, in data set [3] (read-out: Maximal plasma drug concentration (Cmax)), the Cmax was 21.7 µM. For the same compound, the “concentration required to produce a similar effect (apoptosis)” value in data set [4] is “at least 1000 nM”. Also, the IC50 in [5] is 145 µM; in the data set on OV432 it was 0.1 µM; in the data set with 183CLL it was 0.4 µM; in the data set on MKN-74 cells [10] it was > 0.8 µM; in the data set on PKC, 6 µM. Further, the tolerability result in [6] was “tolerated without evidence of significant toxicity”. The “Percent inhibition of PKC activity” value in data set [7] (Flavopiridol 34 nM) is on record as 84%; in data set [7] (Flavopiridol 340 nM), 87%. The PKC activity in data set [7] (Flavopiridol 34 nM) is 4,000 counts of [^32P]ATP incorporated into myelin basic protein/minute; in [7] (Flavopiridol 340 nM), 3,300 counts of [^32P]ATP incorporated into myelin basic protein/minute. Also, the “Percent Apoptosis” value with MKN-74 cells [8] (24 h continuous (single drug) or concomitant, flavopiridol 300 nM, MMC 1 μg/ml, paclitaxel 50 μM, carboplatin, hydrochloride) was 12%±1% and 11.6%±1%. Also, in the data set with MKN-74 cells [8] (24 hours, FLAVO 300 nM, Taxol 50 μM, MMC 1 μg/ml, single drugs or in combination), the “% APOPTOSIS” value amounted to 17%. In addition, in the data set on MKN-74 cells [8] (24 hours, FLAVO 300 nM, Taxol 50 μM, MMC 1 μg/ml, single drugs or together), the “percent induction of apoptosis, Concomitant” value is 17% ± 2%. Also, in the data set with MKN-74 cells [8] (FIG. 7, 24 hours, flavopiridol 300 nM, MMC 50 μM (as printed b127)), the “induction of apoptosis (QFM)” value was 17%±2%. In the data set with MKN-74 cells [8] (MKN-74, 24 hours, Flavo 300 nM, MMC 5 μg/ml), the “induction of apoptosis (condensed chromatin, 400 cells)” value is reported as 17% ± 2. The bcl-2 expression result in the data set with bcl-2 in OV432 cells is “complete loss of bcl-2”; in the data set with bcl-2 in MKN-74 cells it was “failed to induce any decrease in bcl-2”. The t1/2 in data set [9] was 14 h. For the same compound, the MTD was 50 mg/m^2/day in data set [11] (one phase I study, 72 hour infusion every 2 weeks) and 56 mg/m^2/day in data set [11] (the other phase I trial). The “concentration range inhibiting colony formation” value in data set [12] is on record as 250 to 300 nM. Also, the “percentage of cells undergoing apoptosis” value in [13] was 29%±2%. In addition, the cytotoxicity result in the data set on MDA-MB-468 cells (exposure for 24 hours) is on record as “essentially no cytotoxicity”. The cell proliferation result in the data set with MDA-MB-468 cells (prolonged exposure for 72 hours) was “inhibits cell proliferation”. Also, the concentration inducing apoptosis in the data set on SUDHL-4 lymphoma cells is on record as 100 nM.
